Read-outs that look alike come from different tables or passages of the source.

We go through two molecules from PMC3849192, “A Simple Method for Assessing Free Brain/Free Plasma Ratios Using an In Vitro Model of the Blood Brain Barrier” (PLoS ONE, 2013).

Series [1] can be described thus: Fraction unbound brain (fu,br), brain slice method. How it is done: Rats (male Sprague-Dawley) were decapitated under isoflurane anesthesia and the brains were removed carefully and immersed in ice-cold oxygenated physiological buffer at pH7.4. A 6 mm coronal section was cut with a razor and mounted with cyanoacrylate glue onto the tray of the microslicer (DTK-Zero 1 Microslicer, Dosak) after which six to eight 300 µm coronal slices from striatal areas were prepared. […] The compounds were dissolved at 1 µM in the buffer and the solution was incubated with the slice for 5 h.
After 5 h, the brain slices were weighed and homogenized in 9 volumes (w/v) of ECF buffer with a sonicator (SONICS VCX 500 and VCX 130). The slice homogenates in ECF buffer were stored at −20°C prior to analysis. The concentrations of the test compound in the brain slice homogenate and in the ECF buffer was determined by LC-MS/MS.
The unbound volume of distribution Vu,brain, or free fraction fu,brain was calculated according to the following equations: [drawing 1] [drawing 2] where Cslice, CECF and V0 are amount of drug in the slice, the drug concentration in the ECF (representing the drug concentration in the brain ECF, i.e. the free concentration), and the water adhesion of the brain slice. V0 has been estimated using ^14C -inulin in a separate experiment in which brain slices were incubated for 1, 2, and 4 min. V0 was obtained from brain slice uptake – inulin time profile (apparent zero-time intercept).

A short description of series [2]: In vivo brain exposure (Cu,br/Cu,pl) under steady-state like conditions after intravenous administration. Conditions: rat, i.v. bolus plus infusion; for In vivo Cu,br/Cu,pl (homog.) Mean steady-state: Cbr/Cpl x fubr/fupl with fu,br from brain homogenate; for In vivo Cu,br/Cu,pl (slice) Mean steady-state: Cbr/Cpl x fubr/fupl with fu,br from brain slice. The protocol:
Rat plasma was obtained from Sprague-Dawley rats in-house. Plasma from three individuals was pooled and mixed with up to 4 compounds with a concentration of 10 µM each (in 0.1% DMSO). A 48-well dialysis apparatus (AstraZeneca, Mölndal) was used to determine the plasma free fraction. The dialysis membrane (AstraZeneca, Mölndal) was conditioned in Milli/Q water before use. […] The samples were incubated on an orbital shaker (4 mm in diameter and 100 rpm) at 37 °C for 18 hrs. […] After plasma protein precipitation by the addition of 150 µl of acetonitrile to each plasma sample in order to precipitate plasma proteins. The plates were centrifuged and the supernatant analyzed by LC-MS/MS. The fu in plasma was calculated from the ratio of the MS-area of the compound in the buffer to the MS-area of the compound in the plasma.
The CNS exposure of 92 compounds (i.e 30 drugs and 62 proprietary compounds) was assessed under steady-state like conditions after intravenous administration. The time to approach steady-state (taken as at least 3.5 half-lives) was determined from prior studies of the pharmacokinetics of individual compounds after intravenous administration. The rats were put in restraint cages and cannulated via the tail vein. On the day of the experiment, the rats received a bolus injection followed by infusion. The infusion rate and infusion time were determined separately for each compound. The test formulation was administered using an infusion pump (CMA/100 or Univentor 400 microinjection pump).
Blood samples (400 µL) were collected by rapidly anaesthetizing the rats and keeping them under anesthesia with isofluran. Blood was collected either through heart puncture, from the tail vein or the orbital venous plexus and put into EDTA tubes, which were immediately placed on ice and centrifuged within 30 min at 4°C for 5 min at 2000 g to obtain plasma. The plasma was transferred by glass or plastic pipettes to 1.5 ml MTP system topaz vials and immediately frozen to −70°C or lower and stored at −20°C until assayed.
After blood collection, the whole brain was rapidly removed from the animal skull and weighed after which it was frozen and stored at −20°C. Before analysis with LC-MS/MS, the brain samples were sonicated (SONICS Vibracell VCX 130) in Ringer solution (2-fold the brain weight; e.g. 1 gram brain plus 2 mL Ringer).
The unbound brain exposure was assessed as Cu,br/Cu,pl, which is the free brain-free plasma concentration ratio. The Cu,br/Cu,pl ratios were obtained from total brain plasma ratios (Ctot,br/Ctot,pl) by using in vitro determined fu,br and fu,pl values according to: [drawing 4]
Brain concentrations were corrected for residual blood volume using 13 µl/g based on the vascular space of the marker [14C]-sucrose.

A short description of series [3]: Fraction unbound brain (fu,br), brain homogenate equilibrium dialysis. How it is done:
The degree of brain binding was assessed by equilibrium dialysis. Brain homogenate (10%) was spiked with test compound at 1 µM in triplicate. […] The plate was then placed in a shaker/incubator to equilibrate for 18 hrs at 37°C. […] After the addition of 50 µl of buffer to the brain homogenate samples, 150 µl of acetonitrile was added to each sample. Finally, 50 µl of water was added to all buffer and brain homogenate samples. The plates were centrifuged and the supernatant analyzed by LC-MS/MS.

For series [4], the system named is in vitro BBB model (co-culture of bovine brain capillary endothelial cells and rat glial cells). The series can be described thus: In vitro BBB co-culture model, Cu,br/Cu,pl ratio. Conditions: for In vitro Cu,br/Cu,pl Mean 1 h: 2 µM in luminal compartment, abluminal/luminal concentration at 1 h; for In vitro Cu,br/Cu,pl Mean steady-state: steady-state ratio computed from 1 h data with the blue-norna steady-state calculator. The protocol:
Figure 1 Schematic diagram of the experimental protocol. After 12 days of coculture in cell culture medium, both compartments of the in vitro BBB model consisting of a coculture of brain capillary endothlial cells and rat primary glial cells were filled with Hepes-buffered Ringer’s solution and the compounds dissolved at 2 µM were added in the luminal compartment (i.e donor). The presence of glial cells in the abluminal compartment was used to reproduce the non specific binding to brain tisssue within the brain prenchyma in vivo. After 1 hour, aliquots were taken from both compartments. In vitro Cu,br/Cu,pl at 1 h were calculated by dividing the concentration in the abluminal compartment (∼Cu,br) by the concentration in the luminal compartment (∼Cu,pl) at 1 h. The experimental data at 1 h were computed using the blue-norna steady-state calculator to generate the in vitro steady-state Cu,br/Cu,pl.
One hour after the addition of compounds dissolved at 2 µM in the luminal (i.e upper) compartment, aliquots were taken from both compartments previously filled with Hepes-buffered Ringer’s solution at the beginning of the experiment. […] The concentrations in both compartments of the in vitro assay after 1 h were computed using […] blue-norna.com to generate the in vitro steady-state Cu,br/Cu,pl.
The method of Dehouck et al. was used with minor modifications (Fig. 1). Bovine brain endothelial cells isolated from capillary fragments were cocultured with primary mixed glial cells from newborn Sprague–Dawley rats. The glial cells were isolated according to the method of Booher and Sensenbrenner and cultured for 3 weeks, plated on the bottom of cell culture clusters containing six wells each. The endothelial cells were seeded onto collagen-coated polycarbonate cell culture inserts (4.7 cm^2) (Corning Incorp. NY, USA), which were placed in the wells containing glial cells. The medium used for the coculture was Dulbecco’s modified Eagle’s medium supplemented with 10% calf serum, 10% horse serum, 2 mmol/L glutamine, 50 mg/L gentamicin and 1 µg/L basic fibroblast growth factor (Sigma). The medium was changed every second day. Experiments were usually initiated after 12 days of co-culture.
To monitor the integrity of the endothelial cell monolayer, the marker molecule [^14C] sucrose was added to the solution at a concentration of 0.05 µCi/ml. At the start of the transport experiments, buffered Ringer’s solution (pH = 7.4) was added to wells with glial cells. Inserts with brain endothelial cells were placed in these wells and drug solutions at 2 µM were added to the donor compartment. The plates were incubated for 1 h in a polymix shaker at 37°C with a low shaking velocity. Aliquots were taken from the donor compartment in the beginning and at the end of the experiments. The receiver compartments were sampled at the end of the experiments.
The amount of radiotracer in the abluminal compartment was measured in a liquid scintillation analyser (Packard Instrument Company, Meriden, USA). […] The concentrations of the test compound in all samples were analysed by MS/MS.
The mean free brain/plasma ratios were calculated from three individual experiments. One hour ratios were calculated by dividing the drug concentration in the receiver compartment by the free drug concentration in the donor compartment after 1 h. The experimental data at one hour (i.e concentration in both compartment at the beginning of the experiment and after 1 h) were computed using the blue-norna® steady-state calculator (www.blue-norna.com) to predict the in vivo steady-state Cu,br/Cu,pl ratios. For further details on this calculation method see file S1.
The in vivo steady-state Cu,br/Cu,pl were predicted from the in vitro experimental data collected after one hour according to the following equation: […]
Cdonor, t and Creceiver, t are the concentration of drug in the donor and receiver chambers at time t.

For the molecule `Fc1ccc([C@@H]2CCNC[C@H]2COc2ccc3c(c2)OCO3)cc1` [Paroxetin], the “fubrain (slice) Mean” value in series [1] is given as 0.0024. In addition, in series [2], the “In vivo Cu,br/Cu,pl (homog.) Mean steady-state” value was 0.86 and the “In vivo Cu,br/Cu,pl (slice) Mean steady-state” value is reported as 0.53. Further, the “fubrain (homog.) Mean” value in series [3] is 0.0039. Further, in series [4], the “In vitro Cu,br/Cu,pl Mean 1 h” value is reported as 0.08 and the “In vitro Cu,br/Cu,pl Mean steady-state” value is reported as 0.79.
As to `CC(NC(C)(C)C)C(=O)c1cccc(Cl)c1` (stereo not drawn) [Buproprion], in series [1] (rat brain slices 300 µm, 1 µM, 5 h incubation), the “fubrain (slice) Mean” value is 0.1600. In addition, in series [2], the “In vivo Cu,br/Cu,pl (homog.) Mean steady-state” value came to 1.07 and the “In vivo Cu,br/Cu,pl (slice) Mean steady-state” value came out at 1.00. Also, the “fubrain (homog.) Mean” value in series [3] (brain homogenate (10%), 1 µM, equilibrium dialysis 18 hrs at 37°C) was found to be 0.1710. Also, in series [4], the “In vitro Cu,br/Cu,pl Mean 1 h” value turned out to be 0.24 and the “In vitro Cu,br/Cu,pl Mean steady-state” value is 0.51.
